Assay results from PubChem BioAssay (NCI).
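48-hour exposure; five concentrations; linearly interpolated endpoints. TGI is the concentration that stops growth completely.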

Legend:
Test in all cases: growth of human tumour cells (NCI), 48 h
HCT-116 colon = test system: HCT-116 colon
OVCAR-3 ovarian = test system: OVCAR-3 ovarian
M14 melanoma = test system: M14 melanoma
TK-10 renal = test system: TK-10 renal
KM20L2 colon = test system: KM20L2 colon
KM12 colon = test system: KM12 colon
OVCAR-8 ovarian = test system: OVCAR-8 ovarian
NCI-H23 lung = test system: NCI-H23 lung
SR leukemia = test system: SR leukemia
HCT-15 colon = test system: HCT-15 colon
RXF 393 renal = test system: RXF 393 renal
UACC-62 melanoma = test system: UACC-62 melanoma
M19-MEL melanoma = test system: M19-MEL melanoma
SK-MEL-5 melanoma = test system: SK-MEL-5 melanoma
A549 NSCLC = test system: A549 NSCLC
HOP-18 NSCLC = test system: HOP-18 NSCLC
SNB-75 CNS = test system: SNB-75 CNS
ACHN renal = test system: ACHN renal
MOLT-4 leukemia = test system: MOLT-4 leukemia
UO-31 renal = test system: UO-31 renal
XF 498 CNS = test system: XF 498 CNS
NCI-H226 lung = test system: NCI-H226 lung
LOX IMVI melanoma = test system: LOX IMVI melanoma
SK-MEL-2 melanoma = test system: SK-MEL-2 melanoma
DLD-1 colon = test system: DLD-1 colon
IGROV1 ovarian = test system: IGROV1 ovarian
NCI-H460 lung = test system: NCI-H460 lung
SNB-78 CNS = test system: SNB-78 CNS
U251 CNS = test system: U251 CNS
NCI-H522 lung = test system: NCI-H522 lung
SN12C renal = test system: SN12C renal
SF-268 CNS = test system: SF-268 CNS
DMS 114 small cell lung = test system: DMS 114 small cell lung
SK-MEL-28 melanoma = test system: SK-MEL-28 melanoma
LXFL 529 NSCLC = test system: LXFL 529 NSCLC
SF-295 CNS = test system: SF-295 CNS
SK-OV-3 ovarian = test system: SK-OV-3 ovarian
MALME-3M melanoma = test system: MALME-3M melanoma
HL-60(TB) leukemia = test system: HL-60(TB) leukemia
COLO 205 colon = test system: COLO 205 colon
RPMI-8226 leukemia = test system: RPMI-8226 leukemia
CCRF-CEM leukemia = test system: CCRF-CEM leukemia
K-562 leukemia = test system: K-562 leukemia
HT29 colon = test system: HT29 colon
UACC-257 melanoma = test system: UACC-257 melanoma
DMS 273 small cell lung = test system: DMS 273 small cell lung
OVCAR-4 ovarian = test system: OVCAR-4 ovarian
EKVX NSCLC = test system: EKVX NSCLC
HCC-2998 colon = test system: HCC-2998 colon
SW-620 colon = test system: SW-620 colon
CAKI-1 renal = test system: CAKI-1 renal
786-0 renal = test system: 786-0 renal
OVCAR-5 ovarian = test system: OVCAR-5 ovarian
HOP-62 NSCLC = test system: HOP-62 NSCLC
SNB-19 CNS = test system: SNB-19 CNS

Measured: TGI

Cc1ccc(C2C(Cl)C(=O)N2n2cnc3ccccc3c2=O)cc1 (stereo not given)
90.4 µM: UO-31 renal
> 100 µM: all other assays above
